Results taken from patent EP1247803A2, “Indolinone compounds suitable for modulation of protein kinases” (Sugen, Inc., priority 1996, dated 1998).

What was measured:
[1] = target: T1, FLK-1 receptor (Mus musculus, UniProt P35918); experiment: FLK-1 ELISA (kinase activity of the FLK-1 receptor in FLK-1/NIH3T3 cells, VEGF stimulated); type: cell-based; design: concentration or dose not given beside the values
T1 construct: expressed in transfected cells; host or cells: NIH3T3 C7#3
Description: An enzyme linked immunosorbent assay (ELISA) was conducted to measure the catalytic activity of the FLK-1 receptor and more specifically, the inhibition or activation of indolinone compounds on the catalytic activity of the FLK-1 receptor. Specifically, the following assay was conducted to measure catalytic activity of the FLK-1 receptor in FLK-1/NIH3T3 cells.
The materials and protocol for the FLK-1 ELISA assay are as described in International Patent Publication No. WO 96/40116, published December 19, 1996 by Tang et al.
Selected compounds were tested in the FLK-1 ELISA assay.
An ELISA assay was conducted to measure the kinase activity of the FLK-1 receptor and more specifically, the inhibition or activation of protein tyrosine kinase activity on the FLK-1 receptor. Specifically, the following assay was conducted to measure kinase activity of the FLK-1 receptor in FLK-1/NIH3T3 cells.
Materials. The following reagents and supplies were used: • a. […] Cappel goat anti-rabbit IgG (catalog no. 55641); • c. PBS (Gibco Catalog No. 450-1300EB); • d. TBSW Buffer (50 mM Tris (pH 7.2), 150 mM NaCl and 0.1% Tween-20); • e. Ethanolamine stock (10% ethanolamine (pH 7.0), stored at 4°C); • f. HNTG buffer (20mM HEPES buffer (pH 7.5), 150mM NaCl, 0.2% Triton X-100, and 10% glycerol); • g. EDTA (0.5 M (pH 7.0) as a 100X stock); • h. Sodium ortho vanadate (0.5 M as a 100X stock); • i. Sodium pyro phosphate (0.2M as a 100X stock); • j. NUNC 96 well V bottom polypropylene plates (Applied Scientific Catalog No. AS-72092); • k. NIH3T3 C7#3 Cells (FLK-1 expressing cells); • l. DMEM with 1X high glucose L Glutamine (catalog No. 11965-050); • m. FBS, Gibco (catalog no. 16000-028); • n. L-glutamine, Gibco (catalog no. 25030-016); • o. VEGF, PeproTech, Inc. (catalog no. 100-20)(kept as 1 µg/100 µl stock in Milli-Q dH2O and stored at -20°C; • p. Affinity purified anti-FLK-1 antiserum which can be obtained or purified as follows: • 1. Prepare a Tresyl-Activated Agarose/Flk-1-D column by incubating 10 ml of Tresyl-Activated Agarose with 20 mg of purified GST-Flk-1-D fusion protein in 100mM sodium bicarbonate (pH 9.6) buffer overnight at 4 °C. • 2. Wash the column once with PBS. • 3. Block the excess sites on the column with 2 M glycine for 2 hours at 4°C. • 4. Wash the column with PBS. • 5. Incubate the column with Rabbit anti-Flk-1D production bleed for 2 hours at 4 °C. • 6. Wash the column with PBS. • 7. Elute antiserum with 100 mM Citric Acid, pH3.0 and neutralize the eluate immediately with 2 M Tris, pH 9.0. • 8. Dialyize the eluate against PBS overnight at 4 °C with 3 changes of buffer (sample to buffer ratio is 1:100). • 9. Adjust the dialyized antiserum to 5% glycerol and store at -80 °C in small aliquotes. • q.
Protocol. The following protocol was used for conducting the assay: • 1. Coat Corning 96-well elisa plates with 1.0µg per well Cappel Anti-rabbit IgG antibody in 0.1M Na2CO3 pH 9.6. Bring final volume to 150 µl per well. Coat plates overnight at 4°C. Plates can be kept up to two weeks when stored at 4°C. • 2. Grow cells in Growth media(DMEM, supplemental with 2.0mM L-Glutamine, 10% FBS) in suitable culture dishes until confluent at 37°C, 5% CO2. • 3. Harvest cells by trypsinization and seed in Corning 25850 polystyrene 96-well roundbottom cell plates, 25.000 cells/well in 200µl of growth media. • 4. Grow cells at least one day at 37°C, 5% CO2. • 5. Wash cells with D-PBS 1X. • 6. Add 200µl/well of starvation media (DMEM, 2.0mM 1-Glutamine, 0.1% FBS). Incubate overnight at 37°C, 5% CO2. • 7. Dilute Compounds/Extracts 1:20 in polypropylene 96 well plates using starvation media. Dilute dimethylsulfoxide 1:20 for use in control wells. • 8. Remove starvation media from 96 well cell culture plates and add 162 µl of fresh starvation media to each well. • 9. Add 18µl of 1:20 diluted Compound/Extract dilution (from step 7) to each well plus the 1:20 dimethylsulfoxide dilution to the control wells (+/- VEGF), for a final dilution of 1:200 after cell stimulation. […]

[2] = system: MET; experiment: MET biochemical kinase assay; design: species or system human; concentration or dose not given beside the values
Description: A met biochemical kinase assay may be performed for met generally as described above for other kinases by substituting that or the other kinases. In particular, ELISA plates are coated with goat anti-rabbit Fc antibodies, which are used to capture commercially available (from Santa Cruz Biotechnology) rabbit polyclonal antibodies to the cytoplasmic domain of human MET. […] The chimeric receptors, or MET, from these lysates are captured on the antibody coated plates. After washing away extraneous proteins, test compounds are added and an in vitro kinase assay is performed by addition of an appropriate kinase buffer (containing ATP, divalent metal ions, etc.). Incorporation of phosphate into the captured receptors is detected with an anti-phosphotyrosine antibody conjugate with horse radish peroxidase using TMB as a substrate for colorimetric detection.

T1 sequence (P35918 20-1345): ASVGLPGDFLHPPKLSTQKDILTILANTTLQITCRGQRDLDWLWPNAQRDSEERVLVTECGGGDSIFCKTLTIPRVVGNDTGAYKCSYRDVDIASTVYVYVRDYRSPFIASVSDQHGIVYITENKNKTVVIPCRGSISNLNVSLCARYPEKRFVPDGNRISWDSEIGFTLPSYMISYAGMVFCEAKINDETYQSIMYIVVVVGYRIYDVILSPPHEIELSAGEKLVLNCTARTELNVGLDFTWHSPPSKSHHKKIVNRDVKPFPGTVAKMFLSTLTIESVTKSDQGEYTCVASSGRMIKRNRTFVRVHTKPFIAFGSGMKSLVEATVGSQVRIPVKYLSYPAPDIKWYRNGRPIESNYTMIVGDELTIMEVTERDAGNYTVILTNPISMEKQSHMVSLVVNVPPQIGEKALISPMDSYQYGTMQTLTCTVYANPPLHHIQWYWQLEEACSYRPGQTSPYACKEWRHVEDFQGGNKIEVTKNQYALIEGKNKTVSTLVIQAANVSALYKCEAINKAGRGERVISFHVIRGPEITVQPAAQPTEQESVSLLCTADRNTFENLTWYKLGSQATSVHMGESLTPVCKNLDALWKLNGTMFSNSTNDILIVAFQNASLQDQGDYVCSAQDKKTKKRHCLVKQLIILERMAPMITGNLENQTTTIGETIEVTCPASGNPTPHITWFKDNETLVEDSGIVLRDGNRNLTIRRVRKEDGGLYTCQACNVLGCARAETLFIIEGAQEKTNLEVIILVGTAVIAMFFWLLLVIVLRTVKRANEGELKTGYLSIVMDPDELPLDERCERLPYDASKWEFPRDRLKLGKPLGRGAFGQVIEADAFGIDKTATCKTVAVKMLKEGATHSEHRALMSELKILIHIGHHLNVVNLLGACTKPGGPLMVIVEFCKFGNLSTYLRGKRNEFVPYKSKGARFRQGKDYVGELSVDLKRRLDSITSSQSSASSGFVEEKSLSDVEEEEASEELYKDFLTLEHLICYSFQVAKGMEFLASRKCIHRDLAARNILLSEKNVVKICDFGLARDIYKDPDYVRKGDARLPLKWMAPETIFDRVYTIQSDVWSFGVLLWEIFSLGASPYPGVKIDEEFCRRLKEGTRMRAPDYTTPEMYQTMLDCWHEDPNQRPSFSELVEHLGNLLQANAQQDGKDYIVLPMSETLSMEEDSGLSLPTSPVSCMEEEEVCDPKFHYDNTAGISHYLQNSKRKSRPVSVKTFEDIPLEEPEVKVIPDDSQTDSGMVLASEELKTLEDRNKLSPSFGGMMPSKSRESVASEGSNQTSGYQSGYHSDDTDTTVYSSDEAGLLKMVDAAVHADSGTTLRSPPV

SMILES	Fik Kinase %Inhibition [1]	Met Kinase % Inhibition [2]
O=C1Nc2ccc(S(=O)(=O)Nc3ccc(C(F)(F)F)cc3)cc2C1=Cc1c[nH]c(=O)[nH]c1=O [10731/E08]	10.5%	59.0%
COc1ccc2[nH]cc(C=C3C(=O)Nc4ccc(S(=O)(=O)Nc5ccc(C(F)(F)F)cc5)cc43)c2c1 [10731/E09]	52.5%	27.0%
CN1C(=O)C(=C2C(=O)Nc3ccc(S(=O)(=O)Nc4ccc(C(F)(F)F)cc4)cc32)c2ccccc21 [10731/E10]	33.1%	35.5%
CCn1c2ccccc2c2cc(C=C3C(=O)Nc4ccc(S(=O)(=O)N5CCOCC5)cc43)ccc21 [10731/F02]	11.1%	47.5%
Cc1cc2occ(C=C3C(=O)Nc4ccc(S(=O)(=O)N5CCOCC5)cc43)c(=O)c2cc1C [10731/F03]	7.9%	40.6%
C=C(C)C1CC=C(C=C2C(=O)Nc3ccc(S(=O)(=O)N4CCOCC4)cc32)CC1 (stereo not drawn) [10731/F04]	24.5%	17.0%
CC(C)c1ccc2occ(C=C3C(=O)Nc4ccc(S(=O)(=O)N5CCOCC5)cc43)c(=O)c2c1 [10731/F05]	17.6%	84.4%
Cc1ccc2occ(C=C3C(=O)Nc4ccc(S(=O)(=O)N5CCOCC5)cc43)c(=O)c2c1 [10731/F06]	2.2%	20.9%
O=C1Nc2ccc(S(=O)(=O)N3CCOCC3)cc2C1=Cc1coc2ccc([N+](=O)[O-])cc2c1=O [10731/F07]	13.3%	34.7%
O=C1Nc2ccc(S(=O)(=O)N3CCOCC3)cc2C1=Cc1c[nH]c(=O)[nH]c1=O [10731/F08]	9.2%	23.5%
COc1ccc2[nH]cc(C=C3C(=O)Nc4ccc(S(=O)(=O)N5CCOCC5)cc43)c2c1 [10731/F09]	2.3%	20.5%
CN1C(=O)C(=C2C(=O)Nc3ccc(S(=O)(=O)N4CCOCC4)cc32)c2ccccc21 [10731/F10]	11.0%	48.1%
CCn1c2ccccc2c2cc(C=C3C(=O)Nc4ccc(CCCl)cc43)ccc21 [10731/G02]	16.8%	15.2%
Cc1cc2occ(C=C3C(=O)Nc4ccc(CCCl)cc43)c(=O)c2cc1C [10731/G03]	12.9%	33.7%
C=C(C)C1CC=C(C=C2C(=O)Nc3ccc(CCCl)cc32)CC1 (stereo not drawn) [10731/G04]	14.5%	23.3%
CC(C)c1ccc2occ(C=C3C(=O)Nc4ccc(CCCl)cc43)c(=O)c2c1 [10731/G05]	17.5%	72.4%
Cc1ccc2occ(C=C3C(=O)Nc4ccc(CCCl)cc43)c(=O)c2c1 [10731/G06]	10.8%	33.3%

SMILES	Fik Kinase %Inhibition [1]	Met Kinase % Inhibition [2]
O=C1Nc2ccc(CCCl)cc2C1=Cc1coc2ccc([N+](=O)[O-])cc2c1=O [10731/G07]	31.6%	10.9%
O=C1Nc2ccc(CCCl)cc2C1=Cc1c[nH]c(=O)[nH]c1=O [10731/G08]	18.2%	19.5%
COc1ccc2[nH]cc(C=C3C(=O)Nc4ccc(CCCl)cc43)c2c1 [10731/G09]	13.3%	4.4%
CN1C(=O)C(=C2C(=O)Nc3ccc(CCCl)cc32)c2ccccc21 [10731/G10]	-9.0%	10.3%
O=C1Nc2c(Br)cc(Br)cc2C1=CC(c1cccs1)C(F)(F)F (stereo not drawn) [10732/A02]	-12.5%	53.7%
COc1c(C(C)C)cc(C=C2C(=O)Nc3c(Br)cc(Br)cc32)cc1C(C)C [10732/A03]	-9.9%	37.4%
CC(C)c1cc(C=C2C(=O)Nc3c(Br)cc(Br)cc32)cc(C(C)C)c1Oc1ccccc1 [10732/A04]	-14.1%	34.8%
COc1ccc(C=C2C(=O)Nc3c(Br)cc(Br)cc32)cc1C(C)(C)C [10732/A05]	-3.9%	20.5%
CC(C)(C)c1cc(C=C2C(=O)Nc3c(Br)cc(Br)cc32)ccc1OCc1ccccc1 [10732/A06]	-0.0%	5.7%
COc1c(Br)cc(C=C2C(=O)Nc3c(Br)cc(Br)cc32)cc1C(C)(C)C [10732/A07]	-19.8%	26.1%
CC(C)(C)c1cc(C=C2C(=O)Nc3c(Br)cc(Br)cc32)cc(Br)c1OCc1ccccc1 [10732/A08]	-10.0%	32.7%
COc1c(Cl)cc(C=C2C(=O)Nc3c(Br)cc(Br)cc32)cc1C(C)(C)C [10732/A09]	-11.2%	60.3%
CC(C)(C)c1cc(C=C2C(=O)Nc3c(Br)cc(Br)cc32)cc(Cl)c1OCc1ccccc1 [10732/A10]	10.2%	20.3%
COc1c(I)cc(C=C2C(=O)Nc3c(Br)cc(Br)cc32)cc1C(C)(C)C [10732/A11]	-0.6%	65.3%
O=C1Nc2ccc(I)cc2C1=CC(c1cccs1)C(F)(F)F (stereo not drawn) [10732/B02]	2.9%	78.0%
COc1c(C(C)C)cc(C=C2C(=O)Nc3ccc(I)cc32)cc1C(C)C [10732/B03]	8.2%	58.1%
